Measured values taken from paper PMC7954794, “Protein context shapes the specificity of SH3 domain-mediated interactions in vivo” (Nature Communications, 2021).

How the values were obtained:
[1] = tested on: growth of yeast strains under 51 stress conditions; assay: Growth assays in 51 stress conditions (Fig. 1E-F, S2D, S5B); assay type: cell-based, Saccharomyces cerevisiae; design: key to Growth (Fig. S2D) / growth of ABP1 SH3-swapped strains in stress condition: log2 colony size, average of median per strain (growth score); conditions: for Growth (Fig. S2D): ABP1 SH3-swapped strains; for growth of ABP1 SH3-swapped strains in stress condition: FigS2D
Method: All WT, SH3-deleted, KO (except for CDC25 which is the only essential SH3-containing gene in yeast), ABP1 SH3-swapped, and SLA1 SH3-shuffled strains were grown on omnitrays in 1536 formats and robotically manipulated with a pin tool (the DHFR F[1,2] bait strains were used except for the KO strains). Each strain was randomly positioned in 6 replicates per plate and two plates per condition were performed, for 12 replicates per strain in total. A border of two rows and two columns of WT strains (BY4741) around the plate was used to remove border effects. Strains were grown on YPD media for two days at 30 °C. They were then replicated on 51 different media that are described in the Supplementary Table 3 and were incubated at 37 °C in a spImager custom platform with images acquired every two hours for four days. The colony sizes from plate pictures were also measured with the R package “Gitter” and the output was manually inspected. Positions with an abnormality in colony circularity were removed. The colony sizes after 74 h of incubation at 37 °C were log2 transformed and used for the analyses. First, the differences between the two plate replicates were corrected to remove plate effects. The median colony size was calculated for each strain per plate. Strains with a difference in their median colony size of more than two between the two plate replicates were removed. Finally, the average of the median colony size was calculated for each strain per condition (growth score).

[2] = tested on: PPIs identified as affected by the SH3 domain deletions; assay: Liquid DHFR-PCA low-throughput validation of PPIs affected by SH3 deletion (Fig. S1D-E); assay type: cell-based, Saccharomyces cerevisiae; conditions: Deletedscore/WTscore
Method: Liquid DHFR-PCA low-throughput experiments were performed to validate the PPIs identified as affected by the SH3 domain deletions in the high-throughput solid DHFR-PCA screen (256 PPIs weaker or lost and 116 PPIs stronger or gained following domain deletions). Mating and the diploid selection were performed as described for the large-scale experiment, with the exception that the plates were in 384 formats. Following the second diploid selection, diploid cells were inoculated in a 96 v-shaped well plate using a robotically manipulated 96 pin tool in a synthetic complete medium with MSG at pH 6.0 with NAT and HPH. After 48 h of growth, optical density (OD) was read using a TECAN Infinite F200 Pro, and dilutions to 1 OD in sterile nanopure water were prepared. Cells were then diluted to 0.1 OD by combining 25 µl of cell suspension at OD = 1 and 225 µl of PCA selection media without agar in a 96-wells plate. Plates were incubated at 30 °C in a TECAN Infinite M Nano and OD was monitored each 15 min for 72 h.

CDC25
Growth (Fig. S2D) ([1]; Bathophenanthroline.0.1uM): 10.8311 | Growth (Fig. S2D) ([1]; Bathophenanthroline.10uM): 10.71 | Growth (Fig. S2D) ([1]; Bathophenanthroline.1uM): 10.807 | Growth (Fig. S2D) ([1]; CaCl2.100mM): 10.8749 | Growth (Fig. S2D) ([1]; CaCl2.250mM): 10.774 | Growth (Fig. S2D) ([1]; CaCl2.500mM): 10.2891 | Growth (Fig. S2D) ([1]; Caffein.10mM): 10.1016 | Growth (Fig. S2D) ([1]; Caffein.2mM): 11.0786 | Growth (Fig. S2D) ([1]; CdCl2.100uM): 9.608 | Growth (Fig. S2D) ([1]; CdCl2.10uM): 10.8752 | Growth (Fig. S2D) ([1]; CdCl2.50uM): 9.913 | Growth (Fig. S2D) ([1]; CuSO4.1mM): 10.4484 | Growth (Fig. S2D) ([1]; CuSO4.5mM): 7.922 | Growth (Fig. S2D) ([1]; Cycloheximide.0.05.uM): 11.0566 | Growth (Fig. S2D) ([1]; Cycloheximide.0.2.uM): 10.636 | Growth (Fig. S2D) ([1]; Cycloheximide.0.5.uM): 10.117 | Growth (Fig. S2D) ([1]; DMSO.2.): 11.0377 | Growth (Fig. S2D) ([1]; DMSO.6.): 9.934 | Growth (Fig. S2D) ([1]; DMSO.8.): 9.291 | Growth (Fig. S2D) ([1]; Ethanol.2.): 10.7941 | Growth (Fig. S2D) ([1]; Ethanol.6.): 10.2979 | Growth (Fig. S2D) ([1]; Ethanol.8.): 10.0965 | Growth (Fig. S2D) ([1]; Galactose.2.): 10.7721 | Growth (Fig. S2D) ([1]; Glycerol.2.): 9.727 | Growth (Fig. S2D) ([1]; Hydroxyurea.25mM): 10.7845 | Growth (Fig. S2D) ([1]; Hygromycin.190uM): 10.9998 | Growth (Fig. S2D) ([1]; Hygromycin.19uM): 11.0292 | Growth (Fig. S2D) ([1]; Hygromycin.95uM): 11.0306 | Growth (Fig. S2D) ([1]; MMS.0.004.): 10.9713 | Growth (Fig. S2D) ([1]; MMS.0.02.): 10.7211 | Growth (Fig. S2D) ([1]; MMS.0.04.): 9.98 | Growth (Fig. S2D) ([1]; Menadione.100uM): 10.5959 | Growth (Fig. S2D) ([1]; Menadione.200uM): 10.4955 | Growth (Fig. S2D) ([1]; Menadione.50uM): 10.8366 | Growth (Fig. S2D) ([1]; NaCl.0.25M): 10.7898 | Growth (Fig. S2D) ([1]; NaCl.1M): 9.773 | Growth (Fig. S2D) ([1]; Nitroquinoline.10uM): 10.6639 | Growth (Fig. S2D) ([1]; Nitroquinoline.50uM): 10.6019 | Growth (Fig. S2D) ([1]; Nystatin.0.01uM): 11.0504 | Growth (Fig. S2D) ([1]; Nystatin.0.1uM): 11.1 | Growth (Fig. S2D) ([1]; Raffinose.2.): 11.0411 | Growth (Fig. S2D) ([1]; Rapamycin.10nM): 9.922 | Growth (Fig. S2D) ([1]; Rapamycin.50nM): 9.425 | Growth (Fig. S2D) ([1]; SC.pH3): 10.4587 | Growth (Fig. S2D) ([1]; SC.pH6): 11.0388 | Growth (Fig. S2D) ([1]; SDS.0.01.): 11.0329 | Growth (Fig. S2D) ([1]; SDS.0.02.): 11.0194 | Growth (Fig. S2D) ([1]; SDS.0.05.): 10.8768 | Growth (Fig. S2D) ([1]; Sorbitol.10mM): 11.0003 | Growth (Fig. S2D) ([1]; Sorbitol.1mM): 11.0466 | Growth (Fig. S2D) ([1]; Sorbitol.5mM): 10.9359

RVS167
Ratio ([2]; prey YLR144C_1): 0.9983 | Ratio ([2]; prey YLR166C_1): 0.4047 | Ratio ([2]; prey YLR314C_1): 1.009 | Ratio ([2]; prey YLR332W_1): 0.5527 | Ratio ([2]; prey YML016C_1): 0.7209 | Ratio ([2]; prey YMR192W_1): 0.4415 | Ratio ([2]; prey YNL084C_1): 0.8207 | Ratio ([2]; prey YNL106C_1): 0.4642 | Ratio ([2]; prey YNL255C_1): 0.9975 | Ratio ([2]; prey YPL246C_1): 0.6027 | Ratio ([2]; prey YPL249C_1): 0.4423 | Ratio ([2]; prey YPR055W_1): 0.5489 | growth of ABP1 SH3-swapped strains in stress condition ([1]; Bathophenanthroline.0.1uM): 10.8266 | growth of ABP1 SH3-swapped strains in stress condition ([1]; Bathophenanthroline.10uM): 10.6504 | growth of ABP1 SH3-swapped strains in stress condition ([1]; Bathophenanthroline.1uM): 10.7571 | growth of ABP1 SH3-swapped strains in stress condition ([1]; CaCl2.100mM): 10.7957 | growth of ABP1 SH3-swapped strains in stress condition ([1]; CaCl2.250mM): 10.7147 | growth of ABP1 SH3-swapped strains in stress condition ([1]; CaCl2.500mM): 10.2304 | growth of ABP1 SH3-swapped strains in stress condition ([1]; Caffein.10mM): 10.0011 | growth of ABP1 SH3-swapped strains in stress condition ([1]; Caffein.2mM): 10.9656 | growth of ABP1 SH3-swapped strains in stress condition ([1]; CdCl2.100uM): 9.478 | growth of ABP1 SH3-swapped strains in stress condition ([1]; CdCl2.10uM): 10.8675 | growth of ABP1 SH3-swapped strains in stress condition ([1]; CdCl2.50uM): 10.0052 | growth of ABP1 SH3-swapped strains in stress condition ([1]; CuSO4.1mM): 10.4401 | growth of ABP1 SH3-swapped strains in stress condition ([1]; CuSO4.5mM): 7.809 | growth of ABP1 SH3-swapped strains in stress condition ([1]; Cycloheximide.0.05.uM): 11.0732 | growth of ABP1 SH3-swapped strains in stress condition ([1]; Cycloheximide.0.2.uM): 10.5897 | growth of ABP1 SH3-swapped strains in stress condition ([1]; Cycloheximide.0.5.uM): 10.0755 | growth of ABP1 SH3-swapped strains in stress condition ([1]; DMSO.2.): 10.9922 | growth of ABP1 SH3-swapped strains in stress condition ([1]; DMSO.6.): 9.827 | growth of ABP1 SH3-swapped strains in stress condition ([1]; DMSO.8.): 9.078 | growth of ABP1 SH3-swapped strains in stress condition ([1]; Ethanol.2.): 10.7562 | growth of ABP1 SH3-swapped strains in stress condition ([1]; Ethanol.6.): 10.3054 | growth of ABP1 SH3-swapped strains in stress condition ([1]; Ethanol.8.): 10.1073 | growth of ABP1 SH3-swapped strains in stress condition ([1]; Galactose.2.): 10.7616 | growth of ABP1 SH3-swapped strains in stress condition ([1]; Glycerol.2.): 9.801 | growth of ABP1 SH3-swapped strains in stress condition ([1]; Hydroxyurea.25mM): 10.7452 | growth of ABP1 SH3-swapped strains in stress condition ([1]; Hygromycin.190uM): 10.9449 | growth of ABP1 SH3-swapped strains in stress condition ([1]; Hygromycin.19uM): 10.972 | growth of ABP1 SH3-swapped strains in stress condition ([1]; Hygromycin.95uM): 11.0099 | growth of ABP1 SH3-swapped strains in stress condition ([1]; MMS.0.004.): 10.8938 | growth of ABP1 SH3-swapped strains in stress condition ([1]; MMS.0.02.): 10.6752 | growth of ABP1 SH3-swapped strains in stress condition ([1]; MMS.0.04.): 9.941 | growth of ABP1 SH3-swapped strains in stress condition ([1]; Menadione.100uM): 10.5548 | growth of ABP1 SH3-swapped strains in stress condition ([1]; Menadione.200uM): 10.4212 | growth of ABP1 SH3-swapped strains in stress condition ([1]; Menadione.50uM): 10.7634 | growth of ABP1 SH3-swapped strains in stress condition ([1]; NaCl.0.25M): 10.7655 | growth of ABP1 SH3-swapped strains in stress condition ([1]; NaCl.1M): 9.597 | growth of ABP1 SH3-swapped strains in stress condition ([1]; Nitroquinoline.10uM): 10.6917 | growth of ABP1 SH3-swapped strains in stress condition ([1]; Nitroquinoline.50uM): 10.5789 | growth of ABP1 SH3-swapped strains in stress condition ([1]; Nystatin.0.01uM): 10.9774 | growth of ABP1 SH3-swapped strains in stress condition ([1]; Nystatin.0.1uM): 10.9878 | growth of ABP1 SH3-swapped strains in stress condition ([1]; Raffinose.2.): 11.0045 | growth of ABP1 SH3-swapped strains in stress condition ([1]; Rapamycin.10nM): 9.889 | growth of ABP1 SH3-swapped strains in stress condition ([1]; Rapamycin.50nM): 9.373 | growth of ABP1 SH3-swapped strains in stress condition ([1]; SC.pH3): 10.3957 | growth of ABP1 SH3-swapped strains in stress condition ([1]; SC.pH6): 10.965 | growth of ABP1 SH3-swapped strains in stress condition ([1]; SDS.0.01.): 10.9519 | growth of ABP1 SH3-swapped strains in stress condition ([1]; SDS.0.02.): 11.0022 | growth of ABP1 SH3-swapped strains in stress condition ([1]; SDS.0.05.): 10.8383 | growth of ABP1 SH3-swapped strains in stress condition ([1]; Sorbitol.10mM): 10.9602 | growth of ABP1 SH3-swapped strains in stress condition ([1]; Sorbitol.1mM): 11.0196 | growth of ABP1 SH3-swapped strains in stress condition ([1]; Sorbitol.5mM): 10.9136
